Source: patent US11541029B2, “High penetration compositions and their applications” (Techfields Pharma Co., Ltd., priority 2008, dated 2023)

Test system: SLAC/MRL/LPR mice
Test: Lupus in MRL/LPR mice treated from 16 weeks old, 30 mg/kg (10% aq.) on back skin twice per day
Type: in vivo
Protocol: . Progression of lupus was monitored once a week by measurement of hematuria, body weight and survival rate. The experiments were carried out in two groups of mice. One group of mice were 8 weeks old and had not shown SLE characteristics (Table 26a). The other group of mice were 16 weeks old, and had shown SLE characteristics (Table 26b).

Q: With CCN(CC)CCOC(=O)c1ccccc1OC(C)=O.Cl [P-1, diethylaminoethyl acetylsalicylate.HCl salt] as the compound, how does the “Survival Rate” value (week 29) read?
A: The value was 10/10.

Q: What about the “Body Weight” value (week 30) of the same compound?
A: Its value is 46.4 ± 2.1 g.

Q: And the “Hematuria (0-4)” value (week 30)?
A: The value was 0.60 ± 0.22.

Q: What about the “Survival Rate” value (week 30) of the same compound?
A: The value was 10/10.

Q: What about the “Body Weight” value (week 31) of the same compound?
A: The value was 47.1 ± 2.2 g.

Q: And the “Hematuria (0-4)” value (week 31)?
A: Its value is 0.80 ± 0.20.

Q: What about the “Survival Rate” value (week 31) of the same compound?
A: The value was 10/10.

Q: What about the “Body Weight” value (week 32) of the same compound?
A: Its value is 46.6 ± 2.4 g.

Q: And the “Hematuria (0-4)” value (week 32)?
A: Its value is 0.70 ± 0.15.

Q: What about the “Survival Rate” value (week 32) of the same compound?
A: The value was 10/10.

Q: And the “Body Weight” value (week 33)?
A: The value was 47.3 ± 2.1 g.

Q: And the “Hematuria (0-4)” value (week 33)?
A: Its value is 0.50 ± 0.17.

Q: And the “Survival Rate” value (week 33)?
A: The value was 10/10.

Q: What about the “Body Weight” value (week 34) of the same compound?
A: Its value is 47.6 ± 2.0 g.

Q: What about the “Hematuria (0-4)” value (week 34) of the same compound?
A: The value was 0.70 ± 0.15.

Q: And the “Survival Rate” value (week 34)?
A: The value was 10/10.

Q: And the “Body Weight” value (week 35)?
A: Its value is 47.2 ± 2.0 g.

Q: What about the “Hematuria (0-4)” value (week 35) of the same compound?
A: Its value is 0.70 ± 0.15.

Q: And the “Survival Rate” value (week 35)?
A: Its value is 10/10.

Q: And the “Body Weight” value (week 36)?
A: Its value is 46.9 ± 2.1 g.

Q: And the “Hematuria (0-4)” value (week 36)?
A: Its value is 0.50 ± 0.17.

Q: And the “Survival Rate” value (week 36)?
A: The value was 10/10.

Q: And the “Body Weight” value (week 37)?
A: Its value is 47.4 ± 2.7 g.

Q: And the “Hematuria (0-4)” value (week 37)?
A: Its value is 0.70 ± 0.15.

Q: And the “Survival Rate” value (week 37)?
A: Its value is 10/10.

Q: And the “Body Weight” value (week 38)?
A: Its value is 46.9 ± 2.3 g.

Q: And the “Hematuria (0-4)” value (week 38)?
A: Its value is 0.60 ± 0.22.

Q: What about the “Survival Rate” value (week 38) of the same compound?
A: The value was 10/10.

Q: What about the “Body Weight” value (week 39) of the same compound?
A: Its value is 47.2 ± 2.0 g.

Q: What about the “Hematuria (0-4)” value (week 39) of the same compound?
A: Its value is 0.50 ± 0.17.

Q: And the “Survival Rate” value (week 39)?
A: Its value is 10/10.

Q: And the “Body Weight” value (week 40)?
A: Its value is 47.6 ± 2.3 g.

Q: What about the “Hematuria (0-4)” value (week 40) of the same compound?
A: The value was 0.70 ± 0.15.

Q: What about the “Survival Rate” value (week 40) of the same compound?
A: Its value is 10/10.

Q: And the “Body Weight” value (week 41)?
A: Its value is 47.7 ± 2.2 g.

Q: What about the “Hematuria (0-4)” value (week 41) of the same compound?
A: The value was 0.60 ± 0.22.

Q: What about the “Survival Rate” value (week 41) of the same compound?
A: The value was 10/10.

Q: And the “Body Weight” value (week 42)?
A: The value was 46.9 ± 2.0 g.

Q: What about the “Hematuria (0-4)” value (week 42) of the same compound?
A: Its value is 0.70 ± 0.15.

Q: And the “Survival Rate” value (week 42)?
A: The value was 10/10.

Q: And the “Body Weight” value (week 43)?
A: Its value is 47.5 ± 2.8 g.

Q: And the “Hematuria (0-4)” value (week 43)?
A: Its value is 0.60 ± 0.22.

Q: What about the “Survival Rate” value (week 43) of the same compound?
A: The value was 10/10.

Q: And the “Body Weight” value (week 44)?
A: The value was 47.6 ± 2.0 g.

Q: What about the “Hematuria (0-4)” value (week 44) of the same compound?
A: The value was 0.70 ± 0.15.

Q: What about the “Survival Rate” value (week 44) of the same compound?
A: Its value is 10/10.

Q: What about the “Body Weight” value (week 45) of the same compound?
A: The value was 47.9 ± 2.5 g.

Q: And the “Hematuria (0-4)” value (week 45)?
A: The value was 0.50 ± 0.17.

Q: What about the “Survival Rate” value (week 45) of the same compound?
A: Its value is 10/10.

Q: And the “Body Weight” value (week 46)?
A: Its value is 47.6 ± 2.4 g.

Q: And the “Hematuria (0-4)” value (week 46)?
A: The value was 0.70 ± 0.15.

Q: And the “Survival Rate” value (week 46)?
A: Its value is 10/10.

Q: What about the “Body Weight” value (week 47) of the same compound?
A: Its value is 47.3 ± 2.8 g.

Q: And the “Hematuria (0-4)” value (week 47)?
A: Its value is 0.60 ± 0.22.

Q: What about the “Survival Rate” value (week 47) of the same compound?
A: The value was 10/10.

Q: What about the “Body Weight” value (week 48) of the same compound?
A: Its value is 46.6 ± 2.8 g.

Q: And the “Hematuria (0-4)” value (week 48)?
A: Its value is 0.50 ± 0.17.

Q: What about the “Survival Rate” value (week 48) of the same compound?
A: Its value is 10/10.

Q: What about the “Body Weight” value (week 49) of the same compound?
A: The value was 46.9 ± 2.1 g.

Q: What about the “Hematuria (0-4)” value (week 49) of the same compound?
A: The value was 0.60 ± 0.22.

Q: What about the “Survival Rate” value (week 49) of the same compound?
A: The value was 10/10.

Q: And the “Body Weight” value (week 50)?
A: The value was 47.1 ± 2.7 g.

Q: What about the “Hematuria (0-4)” value (week 50) of the same compound?
A: The value was 0.50 ± 0.17.

Q: And the “Survival Rate” value (week 50)?
A: Its value is 10/10.
